How the values were obtained:
Assay type in all cases: cell-based
KRAS G12D = target: T1, KRAS G12D (Homo sapiens, UniProt P01116, G12D); experiment: KRAS G12D HiBit assay; details: AsPc-1-KRAS (G12D)-HiBit-KI cell, compound treatment for 24 hours; for DC50: absolute DC50
T1 construct: AsPc-1-KRAS (G12D)-HiBit-KI cell (Pharmaron); host or cells: AsPc-1-KRAS (G12D)-HiBit-KI cells (HiBiT knock-in at the endogenous KRAS locus)
In short: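 HiBiT luminescence, detected by adding lytic buffer, substrate and LgBiT protein, served as the KRAS G12D read-out. Compounds, serially diluted 3-fold over 10 points from 0.3 mM DMSO stock, were on cells for 24 h; percent inhibition normalized to cells given 0.1% DMSO only.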

KRAS G12V = target: T2, KRAS G12V (Homo sapiens, UniProt P01116, G12V); experiment: KRAS G12V HiBit assay; details: SW620-KRAS (G12V)-HiBit-KI cells, compound treatment for 24 hours, class symbols
T2 construct: SW620-KRAS (G12V)-HiBit-KI cell (Pharmaron); host or cells: SW620-KRAS (G12V)-HiBit-KI cells (HiBiT knock-in at the endogenous KRAS locus)
In short: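 Luminescence from lytic Nano-Glo HiBiT detection with LgBiT read KRAS G12V levels after 24 h compound exposure. Dilutions were 10-point, 3-fold, from a 0.3 mM DMSO stock. Degradation activity was normalised to cells given 0.1% DMSO alone.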

KRAS = target: T3, KRAS (Homo sapiens, UniProt P01116); experiment: KRASamp MSD assay; details: KE39 (KRAS amplified) cells, treated with test compounds for 24 hr, MSD readout of KRAS degradation
T3 construct: endogenous in cells; host or cells: KE39 (KRAS amplified) cells
In short: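 Degradation DC50 derived by curve fitting, with KRAS levels quantified by MSD electrochemiluminescence (capture/detection antibodies, recombinant WT KRAS standard). Lysates prepared from KE39 cells (KRAS amplified) exposed to test compounds for 24 hr.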

[1] = numeric bounds given in place of class symbols

T2 sequence (P01116 1-188 isoform P01116-2 G12V): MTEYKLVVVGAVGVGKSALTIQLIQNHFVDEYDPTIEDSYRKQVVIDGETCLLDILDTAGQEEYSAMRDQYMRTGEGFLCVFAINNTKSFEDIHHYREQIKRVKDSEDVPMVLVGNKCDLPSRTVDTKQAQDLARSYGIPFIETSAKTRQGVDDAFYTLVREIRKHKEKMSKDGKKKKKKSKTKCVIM
T3 sequence (P01116 1-188 isoform P01116-2): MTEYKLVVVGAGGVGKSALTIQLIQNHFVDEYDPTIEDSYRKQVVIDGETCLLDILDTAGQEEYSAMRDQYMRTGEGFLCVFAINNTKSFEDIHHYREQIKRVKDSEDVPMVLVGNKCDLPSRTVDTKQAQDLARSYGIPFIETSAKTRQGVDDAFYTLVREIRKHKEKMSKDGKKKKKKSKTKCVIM
T1 sequence (P01116 1-188 isoform P01116-2 G12D): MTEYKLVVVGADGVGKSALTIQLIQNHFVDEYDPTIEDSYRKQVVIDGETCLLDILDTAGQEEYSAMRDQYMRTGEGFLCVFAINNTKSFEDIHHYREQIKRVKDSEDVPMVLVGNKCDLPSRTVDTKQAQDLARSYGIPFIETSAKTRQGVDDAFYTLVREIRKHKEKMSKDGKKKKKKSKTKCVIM

Compound	DC50 (KRAS G12D; class symbols)	DC50 (KRAS G12V)	DC50 (KRAS)	DC50 (KRAS G12D; [1])	Dmax (KRAS G12D; class symbols)
CCc1c(F)ccc2cc(O)cc(-c3ncc4c(N5CCC[C@@](C)(O)C5)nc(OC[C@@]56CCCN5[C@H](COC(=O)N5CC7(CC(CN8CCC(c9ccc%10c(c9)n(C)c(=O)n%10C9CCC(=O)NC9=O)CC8)C7)C5)CC6)nc4c3F)c12 (stereo partly drawn) [Compound 396, ((3S,7aS)-7a-(((7-(8-ethyl-7-fluoro-3-hydroxynaphthalen-1-yl)-8-fluoro-4-((R)-3-hydroxy-3-methylpiperidin-1-yl)pyrido[4,3-d]pyrimidin-2-yl)oxy)methyl)hexahydro-1H-pyrrolizin-3-yl)methyl 6-((4-(1-(2,6-dioxopiperidin-3-yl)-3-methyl-2-oxo-2,3-dihydro-1H-benzo[d]imidazol-5-yl)piperidin-1-yl)methyl)-2-azaspiro[3.3]heptane-2-carboxylate]	< 0.1 µM	< 0.01 µM	< 0.001 µM		
C#Cc1c(F)ccc2cc(O)cc(-c3ncc4c(N5CCC[C@@](C)(O)C5)nc(OC[C@@]56CCCN5[C@H](COC(=O)N5CCC(OCC#Cc7ccc8c(c7)n(C)c(=O)n8C7CCC(=O)NC7=O)CC5)CC6)nc4c3F)c12 (stereo partly drawn) [Compound 373, ((3S,7aS)-7a-(((7-(8-ethynyl-7-fluoro-3-hydroxynaphthalen-1-yl)-8-fluoro-4-((R)-3-hydroxy-3-methylpiperidin-1-yl)pyrido[4,3-d]pyrimidin-2-yl)oxy)methyl)hexahydro-1H-pyrrolizin-3-yl)methyl 4-((3-(1-(2,6-dioxopiperidin-3-yl)-3-methyl-2-oxo-2,3-dihydro-1H-benzo[d]imidazol-5-yl)prop-2-yn-1-yl)oxy)piperidine-1-carboxylate]	< 0.1 µM	< 0.01 µM	0.001 to 0.01 µM		
C#Cc1c(F)ccc2cc(O)cc(-c3ncc4c(N5CCC[C@@](C)(O)C5)nc(OC[C@@]56CCCN5[C@H](COC(=O)N5CCC7(CCC(CN8CCC(c9ccc%10c(c9)n(C)c(=O)n%10C9CCC(=O)NC9=O)CC8)CC7)C5)CC6)nc4c3F)c12 (stereo partly shown) [Compound 454]	< 0.1 µM	< 0.01 µM	< 0.001 µM		
CCc1c(F)ccc2cc(O)cc(-c3ncc4c(N5CCCOCC5)nc(OC[C@]56CCCN5[C@H](COC(=O)N5CCC(CN7CCC(c8ccc9c(c8)n(C)c(=O)n9C8CCC(=O)NC8=O)CC7)CC5)CC6)nc4c3F)c12 (stereo partly drawn) [Compound 423, ((3S,7aR)-7a-(((7-(8-ethyl-7-fluoro-3-hydroxynaphthalen-1-yl)-8-fluoro-4-(1,4-oxazepan-4-yl)pyrido[4,3-d]pyrimidin-2-yl)oxy)methyl)hexahydro-1H-pyrrolizin-3-yl)methyl 4-((4-(1-(2,6-dioxopiperidin-3-yl)-3-methyl-2-oxo-2,3-dihydro-1H-benzo[d]imidazol-5-yl)piperidin-1-yl)methyl)piperidine-1-carboxylate]	< 0.1 µM	< 0.01 µM	< 0.001 µM		
CCc1c(F)ccc2cc(O)cc(-c3ncc4c(N5CC6(CCC6)C5)nc(OC[C@@]56CCCN5[C@H](COC(=O)N5CCC7(CC5)CC(N5CCC(c8ccc9c(c8)n(C)c(=O)n9C8CCC(=O)NC8=O)CC5)C7)CC6)nc4c3F)c12 (stereo partly drawn) [Compound 347, ((3S,7aS)-7a-(((7-(8-ethyl-7-fluoro-3-hydroxynaphthalen-1-yl)-8-fluoro-4-(2-azaspiro[3.3]heptan-2-yl)pyrido[4,3-d]pyrimidin-2-yl)oxy)methyl)hexahydro-1H-pyrrolizin-3-yl)methyl 2-(4-(1-(2,6-dioxopiperidin-3-yl)-3-methyl-2-oxo-2,3-dihydro-1H-benzo[d]imidazol-5-yl)piperidin-1-yl)-7-azaspiro[3.5]nonane-7-carboxylate]		> 0.1 µM	≥ 0.01 µM	> 0.1 µM	
CCc1c(F)ccc2cc(O)cc(-c3ncc4c(N5CCC[C@@](C)(O)C5)nc(OC[C@@]56CCCN5[C@H](COC(=O)N5CCC(OCCCc7cccc8c7n(C)c(=O)n8C7CCC(=O)NC7=O)CC5)CC6)nc4c3F)c12 (stereo partly drawn) [Compound 2, [(3S,8S)-8-[[7-(8-Ethyl-7-fluoro-3-hydroxy-1-naphthyl)-8-fluoro-4-[(3R)-3-hydroxy-3-methyl-1-piperidyl]pyrido[4,3-d]pyrimidin-2-yl]oxymethyl]-1,2,3,5,6,7-hexahydropyrrolizin-3-yl]methyl4-[3-[1-(2,6-dioxo-3-piperidyl)-3-methyl-2-oxo-benzimidazol-4-yl]propoxy]piperidine-1-carboxylate]	< 0.1 µM	< 0.01 µM	< 0.001 µM		> 50%
CCc1cccc2cc(O)cc(-c3ncc4c(N5CCC[C@@](C)(O)C5)nc(OC[C@@]56CCCN5[C@H](COC(=O)N5CCC7(CC5)CC(N5CCC(c8ccc9c(c8)n(C)c(=O)n9C8CCC(=O)NC8=O)CC5)C7)CC6)nc4c3F)c12 (stereo partly drawn) [Compound 468, ((3S,7aS)-7a-(((7-(8-ethyl-3-hydroxynaphthalen-1-yl)-8-fluoro-4-((R)-3-hydroxy-3-methylpiperidin-1-yl)pyrido[4,3-d]pyrimidin-2-yl)oxy)methyl)hexahydro-1H-pyrrolizin-3-yl)methyl 2-(4-(1-(2,6-dioxopiperidin-3-yl)-3-methyl-2-oxo-2,3-dihydro-1H-benzo[d]imidazol-5-yl)piperidin-1-yl)-7-azaspiro[3.5]nonane-7-carboxylate]	< 0.1 µM	< 0.01 µM	< 0.001 µM		
C#Cc1c(F)ccc2cc(O)cc(-c3ncc4c(N5CCC[C@@](C)(O)C5)nc(OC[C@@]56CCCN5[C@H](COC(=O)N5CCC7(CCC(CN8CCC(c9ccc%10c(c9)n(C)c(=O)n%10C9CCC(=O)NC9=O)CC8)CC7)CC5)CC6)nc4c3F)c12 (stereo partly drawn) [Compound 321, ((3S,7aS)-7a-(((7-(8-ethynyl-7-fluoro-3-hydroxynaphthalen-1-yl)-8-fluoro-4-((R)-3-hydroxy-3-methylpiperidin-1-yl)pyrido[4,3-d]pyrimidin-2-yl)oxy)methyl)hexahydro-1H-pyrrolizin-3-yl)methyl 9-((4-(1-(2,6-dioxopiperidin-3-yl)-3-methyl-2-oxo-2,3-dihydro-1H-benzo[d]imidazol-5-yl)piperidin-1-yl)methyl)-3-azaspiro[5.5]undecane-3-carboxylate]	< 0.1 µM	< 0.01 µM	0.001 to 0.01 µM		
C#Cc1c(F)ccc2cc(O)cc(-c3ncc4c(N5CCC[C@@](C)(O)C5)nc(OC[C@@]56CCCN5[C@H](COC(=O)N5CCC7(CCC7CN7CCC(c8ccc9c(c8)n(C)c(=O)n9C8CCC(=O)NC8=O)CC7)CC5)CC6)nc4c3F)c12 (stereo partly drawn) [Compound 327, ((3S,7aS)-7a-(((7-(8-ethynyl-7-fluoro-3-hydroxynaphthalen-1-yl)-8-fluoro-4-((R)-3-hydroxy-3-methylpiperidin-1-yl)pyrido[4,3-d]pyrimidin-2-yl)oxy)methyl)hexahydro-1H-pyrrolizin-3-yl)methyl 1-((4-(1-(2,6-dioxopiperidin-3-yl)-3-methyl-2-oxo-2,3-dihydro-1H-benzo[d]imidazol-5-yl)piperidin-1-yl)methyl)-7-azaspiro[3.5]nonane-7-carboxylate]	< 0.1 µM	> 0.1 µM	≥ 0.01 µM		
CCc1c(F)ccc2cc(O)cc(-c3ncc4c(N5CCC[C@@](C)(O)C5)nc(OC[C@]56CCCN5[C@H](COC(=O)N5CCC(CCCOc7ccc8c(c7)n(C)c(=O)n8C7CCC(=O)NC7=O)CC5)CC6)nc4c3F)c12 (stereo partly drawn) [Compound 302, ((3S,7aR)-7a-(((7-(8-ethyl-7-fluoro-3-hydroxynaphthalen-1-yl)-8-fluoro-4-((R)-3-hydroxy-3-methylpiperidin-1-yl)pyrido[4,3-d]pyrimidin-2-yl)oxy)methyl)hexahydro-1H-pyrrolizin-3-yl)methyl 4-(3-((1-(2,6-dioxopiperidin-3-yl)-3-methyl-2-oxo-2,3-dihydro-1H-benzo[d]imidazol-5-yl)oxy)propyl)piperidine-1-carboxylate]		< 0.01 µM	< 0.001 µM	> 0.1 µM	
C#Cc1c(F)ccc2cc(O)cc(-c3ncc4c(N5CCC[C@@](C)(O)C5)nc(OC[C@]56CCCN5[C@@H](COC(=O)N5CCC(CN7CCC(c8ccc9c(c8)n(C)c(=O)n9C8CCC(=O)NC8=O)CC7)CC5)CC6)nc4c3F)c12 (stereo partly drawn) [Compound 126, ((3R,7aR)-7a-(((7-(8-Ethynyl-7-fluoro-3-hydroxynaphthalen-1-yl)-8-fluoro-4-((R)-3-hydroxy-3-methylpiperidin-1-yl)pyrido[4,3-d]pyrimidin-2-yl)oxy)methyl)hexahydro-1H-pyrrolizin-3-yl)methyl 4-((4-(1-(2,6-dioxopiperidin-3-yl)-3-methyl-2-oxo-2,3-dihydro-1H-benzo[d]imidazol-5-yl)piperidin-1-yl)methyl) piperidine-1-carboxylate]		< 0.01 µM	< 0.001 µM	> 0.0383 µM	

— patent publication US12599672B2, “KRAS proteolysis targeting chimeras” (PAQ Therapeutics Inc., priority 2023, dated 2026)
